Experimental data reported in patent publication US9718828B2 (MERCK SHARP & DOHME CORP., priority 2011, dated 2017).

Target: Btk enzyme (His-Btk) (Homo sapiens (Human), UniProt Q06187)
Experiment: Btk enzyme activity, IMAP fluorescence polarization assay (Assay Method A)

Chain of Btk enzyme (His-Btk) (Q06187 whole entry): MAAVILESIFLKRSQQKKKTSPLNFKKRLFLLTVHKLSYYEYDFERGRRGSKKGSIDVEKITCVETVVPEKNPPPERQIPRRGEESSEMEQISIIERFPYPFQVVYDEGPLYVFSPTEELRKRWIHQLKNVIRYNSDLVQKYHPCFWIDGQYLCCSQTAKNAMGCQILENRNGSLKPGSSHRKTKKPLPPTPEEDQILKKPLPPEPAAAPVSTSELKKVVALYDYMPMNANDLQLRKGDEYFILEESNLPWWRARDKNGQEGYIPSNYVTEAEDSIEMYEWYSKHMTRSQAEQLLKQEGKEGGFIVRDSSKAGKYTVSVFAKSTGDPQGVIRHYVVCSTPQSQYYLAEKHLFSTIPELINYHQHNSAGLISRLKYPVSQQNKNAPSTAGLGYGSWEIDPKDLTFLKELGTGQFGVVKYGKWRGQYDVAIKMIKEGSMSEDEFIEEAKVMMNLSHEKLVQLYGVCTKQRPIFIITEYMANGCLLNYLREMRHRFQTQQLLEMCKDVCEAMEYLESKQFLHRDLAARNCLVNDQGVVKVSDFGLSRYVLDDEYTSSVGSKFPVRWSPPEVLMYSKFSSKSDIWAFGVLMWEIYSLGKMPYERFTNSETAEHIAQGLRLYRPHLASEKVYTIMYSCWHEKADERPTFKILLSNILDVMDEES

`COCCC(=O)N1CCC[C@@H](c2nc(-c3ccc(C(=O)Nc4cc(C5CC5)ccn4)cc3)c3c(N)nccn23)C1` [Example 61, (R)-4-(8-amino-3-(1-(3-methoxypropanoyl)piperidin-3 yl)imidazo[1,5-a]pyrazin-1-yl)-N-(4-cyclopropylpyridin-2-yl)benzamide] and `CCNC(=O)N1CCC[C@@H](c2nc(-c3ccc(C(=O)Nc4cc(C5CC5)ccn4)cc3)c3c(N)nccn23)C1` [Example 63, (R)-3-(8-amino-1-(4-(4-cyclopropylpyridin-2-ylcarbamoyl)phenyl)imidazo [1,5-a]pyrazin-3-yl)-N-ethylpiperidine-1-carboxamide] cannot be ordered by EC50: < 10 nM for the first, < 10 nM for the second.

`CC1CC1C(=O)N1CCC[C@@H](c2nc(-c3ccc(C(=O)Nc4cc(C5CC5)ccn4)cc3)c3c(N)nccn23)C1` (stereo partly drawn) [Example 62, 4-(8-amino-3-((3R)-1-(2-methylcyclopropanecarbonyl)piperidin-3-yl)imidazo[1,5-a]pyrazin-1-yl)-N-(4-cyclopropylpyridin-2-yl)benzamide] and `CC(C)(F)C(=O)N1CCC[C@@H](c2nc(-c3ccc(C(=O)Nc4cc(C5CC5)ccn4)cc3)c3c(N)nccn23)C1` [Example 64, (R)-4-(8-amino-3-(1-(2-fluoro-2-methylpropanoyl)piperidin-3-yl)imidazo[1,5-a]pyrazin-1-yl)-N-(4-cyclopropylpyridin-2-yl)benzamide] cannot be ordered by EC50: < 10 nM for the first, < 10 nM for the second.

`COCCOCCC(=O)N1CCC[C@@H](c2nc(-c3ccc(C(=O)Nc4cc(C(F)(F)F)ccn4)cc3)c3c(N)nccn23)C1` [Example 68, (R)-4-(8-amino-3-(1-(3-(2-methoxyethoxy)propanoyl)piperidin-3-yl)imidazo[1,5-a]pyrazin-1-yl)-N-(4-(trifluoromethyl)pyridin-2-yl)benzamide] and `CSCCC(=O)N1CCC[C@@H](c2nc(-c3ccc(C(=O)Nc4cc(C(F)(F)F)ccn4)cc3)c3c(N)nccn23)C1` [Example 69, (R)-4-(8-amino-3-(1-(3-(methylthio)propanoyl)piperidin-3-yl)imidazo[1,5-a]pyrazin-1 yl)-N-(4-(trifluoromethyl)pyridin-2-yl)benzamide] cannot be ordered by EC50: < 10 nM for the first, < 10 nM for the second.

`CC1(C(=O)N2CCC[C@@H](c3nc(-c4ccc(C(=O)Nc5cc(C(F)(F)F)ccn5)cc4)c4c(N)nccn34)C2)CCC1` [Example 70, (R)-4-(8-amino-3-(1-(1-methylcyclobutanecarbonyl)piperidin-3-yl)imidazo[1,5-a]pyrazin-1-yl)-N-(4-(trifluoromethyl)pyridin-2-yl)benzamide] and `Nc1nccn2c([C@@H]3CCCN(C(=O)C4(O)CCC4)C3)nc(-c3ccc(C(=O)Nc4cc(C(F)(F)F)ccn4)cc3)c12` [Example 81, (R)-4-(8-amino-3-(1-(1-hydroxycyclobutanecarbonyl)piperidin-3-yl)imidazo[1,5-a]pyrazin-1-yl)-N-(4-(trifluoromethyl)pyridin-2-yl)benzamide] cannot be ordered by EC50: < 10 nM for the first, < 10 nM for the second.

`CC(C)(O)CC(=O)N1CCC[C@@H](c2nc(-c3ccc(C(=O)Nc4cc(C(F)(F)F)ccn4)cc3)c3c(N)nccn23)C1` [Example 71, (R)-4-(8-amino-3-(1-(3-hydroxy-3-methylbutanoyl)piperidin-3-yl)imidazo[1,5-a]pyrazin-1-yl)-N-(4-(trifluoromethyl)pyridin-2-yl)benzamide] and `CC(C)(CO)C(=O)N1CCC[C@@H](c2nc(-c3ccc(C(=O)Nc4cc(C(F)(F)F)ccn4)cc3)c3c(N)nccn23)C1` [Example 78, (R)-4-(8-amino-3-(1-(3-hydroxy-2,2-dimethylpropanoyl)piperidin-3-yl)imidazo[1,5-a]pyrazin-1-yl)-N-(4-(trifluoromethyl)pyridin-2-yl)benzamide] cannot be ordered by EC50: < 10 nM for the first, < 10 nM for the second.

`Nc1nccn2c([C@@H]3CCCN(C(=O)C(F)(F)F)C3)nc(-c3ccc(C(=O)Nc4cc(C(F)(F)F)ccn4)cc3)c12` [Example 72, (R)-4-(8-amino-3-(1-(2,2,2-trifluoroacetyl)piperidin-3-yl)imidazo[1,5-a]pyrazin-1-yl)-N-(4-(trifluoromethyl)pyridin-2-yl)benzamide] and `CC(C)(C)C(=O)N1CCC[C@@H](c2nc(-c3ccc(C(=O)Nc4cc(C(F)(F)F)ccn4)cc3)c3c(N)nccn23)C1` [Example 76, (R)-4-(8-amino-3-(1-pivaloylpiperidin-3-yl)imidazo[1,5-a]pyrazin-1-yl)-N-(4-(trifluoromethyl)pyridin-2-yl)benzamide] cannot be ordered by EC50: < 10 nM for the first, < 10 nM for the second.

`CS(=O)(=O)N1CC(C(=O)N2CCC[C@@H](c3nc(-c4ccc(C(=O)Nc5cc(C(F)(F)F)ccn5)cc4)c4c(N)nccn34)C2)C1` [Example 73, (R)-4-(8-amino-3-(1-(1-(methylsulfonyl)azetidine-3-carbonyl)piperidin-3 yl)imidazo[1,5-a]pyrazin-1-yl)-N-(4-(trifluoromethyl)pyridin-2-yl)benzamide] and `CS(=O)(=O)CCC(=O)N1CCC[C@@H](c2nc(-c3ccc(C(=O)Nc4cc(C(F)(F)F)ccn4)cc3)c3c(N)nccn23)C1` [Example 77, (R)-4-(8-amino-3-(1-(3-(methylsulfonyl)propanoyl)piperidin-3-yl)imidazo[1,5-a]pyrazin-1-yl)-N-(4-(trifluoromethyl)pyridin-2-yl)benzamide] cannot be ordered by EC50: < 10 nM for the first, < 10 nM for the second.

`Cc1noc(C)c1C(=O)N1CCC[C@@H](c2nc(-c3ccc(C(=O)Nc4cc(C(F)(F)F)ccn4)cc3)c3c(N)nccn23)C1` [Example 74, (R)-4-(8-amino-3-(1-(3,5-dimethylisoxazole-4-carbonyl)piperidin-3 yl)imidazo[1,5-a]pyrazin-1-yl)-N-(4-(trifluoromethyl)pyridin-2-yl)benzamide] and `Cc1noc([C@H]2C[C@@H]2C(=O)N2CCC[C@@H](c3nc(-c4ccc(C(=O)Nc5cc(C(F)(F)F)ccn5)cc4)c4c(N)nccn34)C2)n1` [Example 82, 4-(8-amino-3-((R)-1-((1S,2S)-2-(3-methyl-1,2,4-oxadiazol-5-yl)cyclopropanecarbonyl)piperidin-3-yl)imidazo[1,5-a]pyrazin-1-yl)-N-(4-(trifluoromethyl)pyridin-2-yl)benzamide] cannot be ordered by EC50: < 10 nM for the first, < 10 nM for the second.

Compared with `Nc1nccn2c([C@@H]3CCCN(S(=O)(=O)C4CC4)C3)nc(-c3ccc(C(=O)Nc4cc(C(F)(F)F)ccn4)cc3)c12` [Example 75, (R)-4-(8-amino-3-(1-(cyclopropylsulfonyl)piperidin-3-yl)imidazo[1,5-a]pyrazin-1-yl)-N-(4-(trifluoromethyl)pyridin-2-yl)benzamide], `CN(C)C1(C(=O)N2CCC[C@@H](c3nc(-c4ccc(C(=O)Nc5cc(C(F)(F)F)ccn5)cc4)c4c(N)nccn34)C2)CCC1` [Example 79, (R)-4-(8-amino-3-(1-(1-(dimethylamino)cyclobutane-carbonyl)piperidin-3-yl)imidazo[1,5-a]pyrazin-1-yl)-N-(4-(trifluoromethyl)pyridin-2-yl)benzamide] is higher in EC50: < 10 nM for the first, 10 to 100 nM for the second. The first is the more potent here.

`COCCOCCOCCOCCOCCOCCOCCOCCC(=O)N1CCC[C@@H](c2nc(-c3ccc(C(=O)Nc4cc(C(F)(F)F)ccn4)cc3)c3c(N)nccn23)C1` [Example 80, (R)-4-(3-(1-2,5,8,11,14,17,20,23-octaoxahexacosanepiperidin-3-yl)-8-aminoimidazo[1,5-a]pyrazin-1-yl)-N-(4-(trifluoromethyl)pyridin-2-yl)benzamide] was tested, and the EC50 was < 10 nM.
